Non-standard residues stand in square brackets, D forms with d. Residues, ends and D or L forms follow the SMILES beside them. *: point of attachment. X1 = O=S(=O)(c1ccc(N=Nc2ccc(O)c3ccccc23)cc1)*; X2 = O=C(c1ccc(N=Nc2ccccc2)cc1)*
Columns and labels:
purified collagenase [1] = experiment: Hydrolysis of NABS-peptide by purified collagenase (Example 16); format: biochemical, tadpole; settings: 5×10^-4 M in 20% ethanol-Tris-HCl pH 7.8, collagenase 17.4 U/ml, 60 minutes at 37° C.
Procedure: (§1) Purified collagenase used in Examples was prepared from cultured media of tadpole skin explants as described in Biochem. Biophs. Acta, 263 564(1972), and non-specific peptidases were prepared by subjecting 5 ml of fresh adult human serum to chromatography on a calibrated Sephadex G-200 superfine gel column equilibrated with 0.05 M Tris-HCl buffer, pH 7.5, containing 0.15 M NaCl and 5 mM CaCl2, and gathering the effluent fractions corresponding to molecular weights of 100,000-180,000.
NABS-Pro-Gln-Gly-Ile-Ala-Gly-Gln-D-Arg-OH was dissolved in 20% ethanol-0.05 M Tris-HCl buffer, pH 7.8, containing 0.15 M NaCl and 5 mM CaCl2 to make a concentration of 5×10^-4 M. 0.5 ml of the solution was mixed with 0.1 ml of the purified collagenase (17.4 U/ml) and incubated for 60 minutes at 37° C. After stopping the enzyme reaction by adding 0.1 ml of 5 N-hydrochloric acid, the NABS-peptide fragments released were extracted with 1 ml ethyl acetate, followed by centrifugation at 3,000-5,000 rpm and room temperature for 10 minutes. The degree of hydrolysis was determined by measuring the absorbance of the organic layer at 389 nm.

purified collagenase [2] = experiment: Hydrolysis of PAB-peptide by purified collagenase (Example 17); format: biochemical, tadpole; settings: 5×10^-4 M in Tris-HCl pH 7.8, collagenase 17.4 U/ml, 60 minutes at 37° C.
Procedure: as §1
PAS-Pro-Gln-Gly-Ile-Ala-Gly-Gln-D-Arg-OH was dissolved in 0.05 M Tris-HCl buffer, pH 7.8, containing 0.15 M NaCl and 5 mM CaCl2 to make a concentration of 5×10^-4 M. 0.1 ml of the solution was mixed with 0.1 ml of the purified collagenase (17.4 U/ml) and incubated for 60 minutes at 37° C. After stopping the enzyme reaction by adding 0.5 ml of 1 N hydrochloric acid, the PAB-peptide fragments released were extracted with 1 ml ethyl acetate after saturated with sodium chloride, and worked up as in Example 16. The degree of hydrolysis was determined by measuring the absorbance of the organic layer at 325 nm.

| degree of hydrolysis, OD389/hr/ml (purified collagenase [1]) [OD389/hr/ml] | SMILES | degree of hydrolysis, OD325/hr/ml (purified collagenase [2]) [OD325/hr/ml] |
| --- | --- | --- |
| 0.100 | CC[C@H](C)[C@H](NC(=O)CNC(=O)[C@H](CCC(N)=O)NC(=O)[C@@H]1CCCN1S(=O)(=O)c1ccc(N=Nc2ccc(O)c3ccccc23)cc1)C(=O)N[C@@H](C)C(=O)NCC(=O)N[C@@H](CCC(N)=O)C(=O)N[C@H](CCCNC(=N)N)C(=O)O [Example 2, NABS-Pro-Gln-Gly-Ile-Ala-Gly-Gln-D-Arg-OH] (X1-PQGIAGQ[dR]-OH) |  |
|  | CC[C@H](C)[C@H](NC(=O)CNC(=O)[C@H](CCC(N)=O)NC(=O)[C@@H]1CCCN1C(=O)c1ccc(N=Nc2ccccc2)cc1)C(=O)N[C@@H](C)C(=O)NCC(=O)N[C@@H](CCC(N)=O)C(=O)N[C@H](CCCNC(=N)N)C(=O)O [Example 3, PAB-Pro-Gln-Gly-Ile-Ala-Gly-Gln-D-Arg-OH] (X2-PQGIAGQ[dR]-OH) | 1.117 |
